Measurements from US20110046378A1, “Novel Imaging Agents for Detecting Neurological Dysfunction” (SIEMENS MEDICAL SOLUTIONS USA, INC., priority 2008, published 2011).
Where two headings read alike, the source gives them in different places.

What was measured:
Format in all cases: binding
[1] = target: T1, Amyloid (AD patient's brain slice) (Homo sapiens, UniProt P05067); test: IC50 determination with [18F]-PiB by ex vivo competition assay using autoradiography staining
T1 construct: The brain slices were 20 um thick
Text: Ex Vivo Competition Assay Using Amyloid (AD patient's brain slice) Autoradiography Staining

Aβ(1-42) Fibrils = Aβ(1-42) Fibrils (Homo sapiens, UniProt P05067); test: Biacore (SPR) screening on immobilized Aβ42 fibrils; conditions: for BINDING LEVELS TO Aβ(1-42) Fibrils: screening compounds at 10 uM; for Binding to fibrils (Aβ1-42): carbazole-based hits;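 for BINDING LEVELS TO Aβ(1-42) Fibrils: minus means no binding and more plus signs mean higher affinity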
[2] = target: Aβ(1-42) Oligomers/Polymers (Homo sapiens, UniProt P05067); test: Biacore (SPR) screening on immobilized Aβ42 oligomers/soluble polymers; parameters: Binding to oligomers/polymers (Aβ1-42): key to the marks not given beside the values; conditions: for BINDING LEVELS TO Aβ(1-42) Oligomers/Polymers: screening compounds at 10 uM; for Binding to oligomers/polymers (Aβ1-42): carbazole-based hits
[3] = determination 1, vs [18F]-PiB, read-out: IC50 1
[4] = determination 3, vs [18F]-PiB, read-out: IC50 3
[5] = determination 5, vs [18F]-PiB, read-out: IC50 5
[6] = determination 6, vs [18F]-PiB, read-out: IC50 6
[7] = determination 13, vs [18F]-PiB, read-out: IC50 13
[8] = mean of determinations, vs [18F]-PiB, read-out: Average IC50

T1 sequence (P05067 672-711 limits assumed): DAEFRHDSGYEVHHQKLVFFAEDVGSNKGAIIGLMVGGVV
Sequence of Aβ(1-42) Oligomers/Polymers (P05067 672-713 limits assumed): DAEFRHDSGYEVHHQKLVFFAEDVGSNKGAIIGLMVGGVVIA
Sequence of Aβ(1-42) Fibrils (P05067 672-713 limits assumed): as above

## CN(C)c1ccc2c(c1)[nH]c1cc(OCCOCCOCCF)ccc12 [CB-007, 7-(2-(2-(2-fluoroethoxy)ethoxy)ethoxy)-N,N-dimethyl-9H-carbazol-2-amine]
[1]; [3]
  IC50: 0.26 µM
[1]; [4]
  IC50: 0.17 µM
[1]; [5]
  IC50: 0.2 µM
[1]; [6]
  IC50: 0.29 µM
[1]; [7]
  IC50: 0.3 µM
[1]; [8]
  IC50: 0.244 µM

## COc1c(-c2ccco2)oc2ccccc2c1=O
Aβ(1-42) Fibrils
  BINDING LEVELS TO Aβ(1-42) Fibrils: +
[2]
  BINDING LEVELS TO Aβ(1-42) Oligomers/Polymers: +

## O=c1c(O)c(-c2ccccc2)oc2ccc(O)cc12
Aβ(1-42) Fibrils
  BINDING LEVELS TO Aβ(1-42) Fibrils: ++
[2]
  BINDING LEVELS TO Aβ(1-42) Oligomers/Polymers: +++

## COc1cccc(-c2oc3cc(OC)ccc3c(=O)c2OC)c1
Aβ(1-42) Fibrils
  BINDING LEVELS TO Aβ(1-42) Fibrils: −
[2]
  BINDING LEVELS TO Aβ(1-42) Oligomers/Polymers: +

## Oc1ccc2c(c1)[nH]c1ccccc12 [drawing 33]
Aβ(1-42) Fibrils
  BINDING LEVELS TO Aβ(1-42) Fibrils: +
[2]
  BINDING LEVELS TO Aβ(1-42) Oligomers/Polymers: +++

## Oc1ccc(-c2nc(-c3ccncc3)c(-c3ccc(F)cc3)[nH]2)cc1
Aβ(1-42) Fibrils
  BINDING LEVELS TO Aβ(1-42) Fibrils: ++
[2]
  BINDING LEVELS TO Aβ(1-42) Oligomers/Polymers: ++

## Cc1nccc2c1[nH]c1cc(O)ccc12 [drawing 32]
Aβ(1-42) Fibrils
  BINDING LEVELS TO Aβ(1-42) Fibrils: +
[2]
  BINDING LEVELS TO Aβ(1-42) Oligomers/Polymers: ++

## Fc1cc(F)cc(-c2cn(-c3ccc(F)cc3F)nn2)c1
Aβ(1-42) Fibrils
  BINDING LEVELS TO Aβ(1-42) Fibrils: −
[2]
  BINDING LEVELS TO Aβ(1-42) Oligomers/Polymers: ++++

## Fc1ccc(-c2cn(-c3cccc(C(F)(F)F)c3)nn2)c(F)c1
Aβ(1-42) Fibrils
  BINDING LEVELS TO Aβ(1-42) Fibrils: +
[2]
  BINDING LEVELS TO Aβ(1-42) Oligomers/Polymers: +

## Cc1oc2cc(O)ccc2c(=O)c1-c1ccc(F)cc1
Aβ(1-42) Fibrils
  BINDING LEVELS TO Aβ(1-42) Fibrils: +
[2]
  BINDING LEVELS TO Aβ(1-42) Oligomers/Polymers: +

## Fc1ccc(-c2cn(-c3ccc(Cl)c(Cl)c3)nn2)c(F)c1
Aβ(1-42) Fibrils
  BINDING LEVELS TO Aβ(1-42) Fibrils: −
[2]
  BINDING LEVELS TO Aβ(1-42) Oligomers/Polymers: +

## COc1ccc2c(=O)c(-c3ccccc3)c(C)oc2c1OC
Aβ(1-42) Fibrils
  BINDING LEVELS TO Aβ(1-42) Fibrils: −
[2]
  BINDING LEVELS TO Aβ(1-42) Oligomers/Polymers: +

## CCc1cc2c(=O)c(-c3ccc(F)cc3)c(C)oc2cc1O
Aβ(1-42) Fibrils
  BINDING LEVELS TO Aβ(1-42) Fibrils: −
[2]
  BINDING LEVELS TO Aβ(1-42) Oligomers/Polymers: +

## Cc1oc2cc(O)ccc2c(=O)c1-c1nncn1-c1ccccc1
Aβ(1-42) Fibrils
  BINDING LEVELS TO Aβ(1-42) Fibrils: +
[2]
  BINDING LEVELS TO Aβ(1-42) Oligomers/Polymers: ++

## O=c1cc(-c2ccccc2)oc2ccc(O)cc12
Aβ(1-42) Fibrils
  BINDING LEVELS TO Aβ(1-42) Fibrils: +
[2]
  BINDING LEVELS TO Aβ(1-42) Oligomers/Polymers: ++

## CNc1ccc2c(c1)[nH]c1cc(OCCOCCOCCF)ccc12 [CB-004, 7-(2-(2-(2-fluoroethoxy)ethoxy)ethoxy)-N-methyl-9H-carbazol-2-amine]
[1]; [3]
  IC50: 0.26 µM
[1]; [4]
  IC50: 0.35 µM
[1]; [5]
  IC50: 0.3 µM
[1]; [6]
  IC50: 0.3 µM
[1]; [7]
  IC50: 0.4 µM
[1]; [8]
  IC50: 0.322 µM

## Cc1c(-c2ccccc2)oc2cc(O)ccc2c1=O
Aβ(1-42) Fibrils
  BINDING LEVELS TO Aβ(1-42) Fibrils: +
[2]
  BINDING LEVELS TO Aβ(1-42) Oligomers/Polymers: +

## Oc1ccc2c(c1)[nH]c1ccccc12 [drawing 135]
Aβ(1-42) Fibrils
  Binding to fibrils (Aβ1-42): +
[2]
  Binding to oligomers/polymers (Aβ1-42): +++

## O=c1cc(-c2ccccc2)c2ccc(O)c(O)c2o1
Aβ(1-42) Fibrils
  BINDING LEVELS TO Aβ(1-42) Fibrils: +++
[2]
  BINDING LEVELS TO Aβ(1-42) Oligomers/Polymers: +++++

## Nc1ccc2[nH]c(C(F)(F)F)nc2c1
Aβ(1-42) Fibrils
  BINDING LEVELS TO Aβ(1-42) Fibrils: +
[2]
  BINDING LEVELS TO Aβ(1-42) Oligomers/Polymers: ++

## O=CNc1ccc2c(c1)[nH]c1cc(OCCOCCF)ccc12 [CB-024, N-(7-(2-(2-fluoroethoxy)ethoxy)-9H-carbazol-2-yl)formamide]
[1]; determination 7, vs [18F]-PiB, read-out: IC50 7
  IC50: 0.54 µM
[1]; [8]
  IC50: 0.54 µM

## Fc1cc(F)cc(-c2cn(-c3cc(Cl)ccc3Cl)nn2)c1
Aβ(1-42) Fibrils
  BINDING LEVELS TO Aβ(1-42) Fibrils: −
[2]
  BINDING LEVELS TO Aβ(1-42) Oligomers/Polymers: +

## Cc1oc2c(C)c(O)ccc2c(=O)c1-c1nncn1-c1ccccc1
Aβ(1-42) Fibrils
  BINDING LEVELS TO Aβ(1-42) Fibrils: −
[2]
  BINDING LEVELS TO Aβ(1-42) Oligomers/Polymers: ++

## O=c1c(O)c(-c2ccc(O)c(O)c2)oc2cc(O)ccc12
Aβ(1-42) Fibrils
  BINDING LEVELS TO Aβ(1-42) Fibrils: +++++
[2]
  BINDING LEVELS TO Aβ(1-42) Oligomers/Polymers: ++++++

## C[S+]([O-])c1ccc(-c2nc(-c3ccc(F)cc3)c(-c3ccncc3)[nH]2)cc1 (stereo not shown)
Aβ(1-42) Fibrils
  BINDING LEVELS TO Aβ(1-42) Fibrils: +
[2]
  BINDING LEVELS TO Aβ(1-42) Oligomers/Polymers: ++

## COc1ccc2oc(-c3ccc(OC)c(OC)c3)c(OC)c(=O)c2c1
Aβ(1-42) Fibrils
  BINDING LEVELS TO Aβ(1-42) Fibrils: +
[2]
  BINDING LEVELS TO Aβ(1-42) Oligomers/Polymers: +++

## CCOc1ccc2c(=O)c(Oc3ccccc3)c(C)oc2c1
Aβ(1-42) Fibrils
  BINDING LEVELS TO Aβ(1-42) Fibrils: +
[2]
  BINDING LEVELS TO Aβ(1-42) Oligomers/Polymers: +

## Nc1ccc(O)c2ncccc12
Aβ(1-42) Fibrils
  BINDING LEVELS TO Aβ(1-42) Fibrils: +
[2]
  BINDING LEVELS TO Aβ(1-42) Oligomers/Polymers: ++

## Nc1cccc(-c2cn(-c3cc(Cl)cc(Cl)c3)nn2)c1
Aβ(1-42) Fibrils
  BINDING LEVELS TO Aβ(1-42) Fibrils: +
[2]
  BINDING LEVELS TO Aβ(1-42) Oligomers/Polymers: +

## O=c1c(O)c(-c2ccccc2)[nH]c2ccccc12
Aβ(1-42) Fibrils
  BINDING LEVELS TO Aβ(1-42) Fibrils: ++
[2]
  BINDING LEVELS TO Aβ(1-42) Oligomers/Polymers: ++++

## Oc1cnc(Cl)c2ccccc12
Aβ(1-42) Fibrils
  BINDING LEVELS TO Aβ(1-42) Fibrils: −
[2]
  BINDING LEVELS TO Aβ(1-42) Oligomers/Polymers: +

## O=c1c(O)c(-c2cccc(O)c2)oc2ccc(O)cc12
Aβ(1-42) Fibrils
  BINDING LEVELS TO Aβ(1-42) Fibrils: ++
[2]
  BINDING LEVELS TO Aβ(1-42) Oligomers/Polymers: ++++

## CC1NCCc2cc(O)c(O)cc21 (stereo not shown)
Aβ(1-42) Fibrils
  BINDING LEVELS TO Aβ(1-42) Fibrils: +
[2]
  BINDING LEVELS TO Aβ(1-42) Oligomers/Polymers: ++

## O=c1cc(-c2ccccc2)oc2cc(O)ccc12
Aβ(1-42) Fibrils
  BINDING LEVELS TO Aβ(1-42) Fibrils: +
[2]
  BINDING LEVELS TO Aβ(1-42) Oligomers/Polymers: +

## Cc1c(-c2ccccc2)c(=O)oc2cc(O)ccc12
Aβ(1-42) Fibrils
  BINDING LEVELS TO Aβ(1-42) Fibrils: −
[2]
  BINDING LEVELS TO Aβ(1-42) Oligomers/Polymers: +

## Cc1cc(C)c2oc(-c3ccco3)c(O)c(=O)c2c1
Aβ(1-42) Fibrils
  BINDING LEVELS TO Aβ(1-42) Fibrils: −
[2]
  BINDING LEVELS TO Aβ(1-42) Oligomers/Polymers: +

## Cc1nccc2c1[nH]c1cc(O)ccc12 [drawing 134]
Aβ(1-42) Fibrils
  Binding to fibrils (Aβ1-42): +
[2]
  Binding to oligomers/polymers (Aβ1-42): ++

## COc1cccc2oc(-c3ccccc3)cc(=O)c12
Aβ(1-42) Fibrils
  BINDING LEVELS TO Aβ(1-42) Fibrils: −
[2]
  BINDING LEVELS TO Aβ(1-42) Oligomers/Polymers: +

## Fc1ccc(-c2nc(-c3ccccc3)c(-c3ccccc3)[nH]2)cc1
Aβ(1-42) Fibrils
  BINDING LEVELS TO Aβ(1-42) Fibrils: −

## Cc1ccc(O)c(-c2ccno2)c1
Aβ(1-42) Fibrils
  BINDING LEVELS TO Aβ(1-42) Fibrils: +
[2]
  BINDING LEVELS TO Aβ(1-42) Oligomers/Polymers: +

## CCOc1ccc(Oc2c(C)oc3cc(O)ccc3c2=O)cc1
Aβ(1-42) Fibrils
  BINDING LEVELS TO Aβ(1-42) Fibrils: −
[2]
  BINDING LEVELS TO Aβ(1-42) Oligomers/Polymers: +

## Cc1cc(C)c2oc(-c3cccs3)c(O)c(=O)c2c1
Aβ(1-42) Fibrils
  BINDING LEVELS TO Aβ(1-42) Fibrils: −
[2]
  BINDING LEVELS TO Aβ(1-42) Oligomers/Polymers: +
